Test results reported in patent US20040097534A1, “Composition for the protection and regeneration of nerve cells containing berberine derivatives” (EUGENBIO INC., priority 2001, published 2004).

Legend:
[1] = system: pyramidal nerve cells in the hippocampal CA1 region; assay: Forebrain ischemia induced by 4-vessel occlusion (4-VO), viable CA1 cells; assay type: in vivo, Wister male white rats; conditions: berberine i.p. 0 and 90 minutes after ischemia induction, 1 week after; sham 308±6.6, saline 28±3.8
Description: A 4-VO model was prepared by a modified method of Pulsinelli, et al (Ann. Neurol. 11, 491-498(1982)). Wister male white rats weighing about […] were anesthetized with 5% isoflurane contained in a mixture of nitrogen and oxygen (70:30), and then surgery was performed under anesthetization while maintaining the concentration of isoflurane at 1.5%.
First, the throat region was incised, and then silicone tube rings were inserted into common carotid arteries to perform reperfusion after ischemia induction. Upon inducing ischemia, in order to block blood circulation through microvessels, a thread was penetrated so that the trachea, esophagus, external jugular veins and common carotid arteries of the rat were positioned to the front, and cervical and paravertebral muscles of the rat were positioned to the back. Thereafter, the wounds were sutured with operating clips.
Next, the head of the rat was fixed on a stereotaxic apparatus to operate on the occiput, and then the tail was fixed so that it descended downwardly at an angle of 30°. […]
While body temperatures of the rats were measured at intervals of 30 minutes for 2 hours, and thereafter measured at intervals of 1 hour for 3 hours after ischemia induction, the rats were maintained at 37±0.5° C. using a temperature-controlling heater. The body temperature was measured by inserting a probe into the rectum to a depth of 6 cm. […]

[2] = system: nerve cells in cerebral slices; assay: Apoptosis of nerve cells induced by MK-801, TUNEL staining of cerebral slices; assay type: in vivo; conditions: for apoptosis of nerve cells (TUNEL staining): berberine (5 mg/kg) alone, intraperitoneal, young white rats
From the text: All groups were intraperitoneally injected.
Experimental animals were sacrificed under anesthetization and their brains were excised. The excised brains were fixed with formalin and tissue sections were obtained. The tissue sections were stained by TUNEL method, and photographed (×1.25 and ×400) using an optical microscope (Olympus BX 50).
The number of TUNEL-positive dead nerve cells in the same area of cerebral slices of 12 rats per group was counted, and the numbers were averaged (FIG. 1).

## COc1ccc2cc3[n+](cc2c1OC)CCc1cc2c(cc1-3)OCO2 [Berberine, 7,8,13,13a-tetradihydro-9,10-dimethoxy-2,3-(methylenedioxy) berbinium]
[1]
  density of viable cells in hippocampal CA1: 257±9.6 cell/mm^2
[2]
  apoptosis of nerve cells (TUNEL staining): did not induce apoptosis of nerve cells
[2]; listed as berberine
  apoptosis of nerve cells (TUNEL staining): apoptosis of nerve cells was not observed
[2]; pretreated with berberine (5 mg/kg) for 5 days, then MK-801 (0.5 mg/kg) i.p.
  inhibition of apoptosis of nerve cells induced by MK-801: considerably inhibits apoptosis of nerve cells induced by MK-801
